SMILES strings stand for the structures.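 Cultured in 96-well plates, cells were exposed to test compound for 48 hours across five concentrations. TGI marks complete inhibition of growth.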

Results on nine molecules are retold here after PubChem BioAssay (NCI).

Holding throughout (assay): DTP human tumour cell line panel, 48 h
For assay [1], the system named is LOX IMVI melanoma.
Assay [2] deals with UACC-257 melanoma.
In assay [3] the test system is MCF7 breast.
Assay [4] concerns M14 melanoma.
For assay [5], the system named is SF-268 CNS.
Assay [6] relates to COLO 205 colon.
The subject of assay [7] is MDA-MB-231 breast.
The subject of assay [8] is RXF 393 renal.
For assay [9], the system named is MALME-3M melanoma.
Assay [10] deals with HS 578T breast.
Assay [11] has as its system PC-3 prostate.
For assay [12], the system named is SR leukemia.
In assay [13] the test system is NCI-H522 lung.
Assay [14] has as its system IGROV1 ovarian.
Assay [15] has as its system OVCAR-3 ovarian.
Assay [16] relates to SN12C renal.

In the case of `O=C(O)c1ccccc1/C=N/NC1=NCCCCN1`, the TGI in assay [1], in [2], in assay [3], in [4], in [5] and in [6] was greater than 100 µM throughout. Moreover, the TGI in assay [7], in [8], in assay [9], in assay [10], in assay [11] and in [12] was greater than 100 µM throughout. The total growth inhibition concentration (TGI) in assay [13], in assay [14] and in assay [15] was greater than 100 µM each time.
As to `COc1cccc(C2C3=C(COC3=O)Oc3cc4c(cc32)OCO4)c1` (stereo not given), the total growth inhibition concentration (TGI) (commonly the concentration giving total growth inhibition) in assay [16] was greater than 100 µM; in [1] it was greater than 22.1 µM; in [2] it was greater than 100 µM; in assay [3], greater than 100 µM; in assay [4] it was greater than 100 µM; in assay [5], greater than 62.6 µM. The TGI in assay [6] is 0.631 µM; in assay [7] it was greater than 43.3 µM; in assay [8], greater than 100 µM; in [9], greater than 100 µM; in assay [10], greater than 100 µM; in assay [11], greater than 100 µM. Besides, the TGI in assay [12] was greater than 100 µM; in [13], 0.0596 µM; in assay [14], greater than 64.9 µM; in assay [15], 0.43 µM.
Regarding `COc1cc2c(cc1O)[C@@H]1Cc3c(cc(OC)c(OC)c3Oc3cc4c(cc3OC)CCN(C)[C@@H]4Cc3ccc(O)cc3)[C@H](C2)N1C`, the TGI in assay [16] is greater than 100 µM; in [1], 37.7 µM; in assay [2] it was 44.6 µM; in assay [3] it was greater than 100 µM; in assay [4] it was 33.9 µM; in assay [5], greater than 100 µM. The TGI was 38.2 µM in [6]; 98.2 µM in assay [7]; 37.4 µM in [8]; 32.2 µM in [9]; greater than 100 µM in assay [10]; greater than 100 µM in assay [11]. Besides, the TGI in assay [12] is 19.3 µM; in [13], 67 µM; in assay [14], greater than 100 µM; in [15], greater than 100 µM.
As to `C[C@]12[C@@H]3CC[C@H]1[C@@H](OC(=O)Nc1cc([N+](=O)[O-])cc([N+](=O)[O-])c1)C(=O)N2CC3`, the TGI in [16], in [1], in [2], in [3], in [4] and in [5] was greater than 100 µM each time. Besides, the TGI in assay [6], in assay [7], in assay [8], in assay [9], in [10] and in [11] was greater than 100 µM each time. Also, the concentration for total growth inhibition (TGI) in [12], in [13] and in assay [14] was greater than 100 µM throughout.
Consider `Cc1ccc(S(=O)(=O)NC(=O)Nc2ccc(S(N)(=O)=O)cc2S(N)(=O)=O)cc1`, for which the total growth inhibition concentration (TGI) in assay [16], in [1], in [2], in assay [3], in assay [4] and in [5] was greater than 100 µM throughout. In addition, the TGI in [6], in [7], in assay [8], in assay [9], in assay [10] and in [11] was greater than 100 µM throughout. For the same molecule, the TGI in [13], in [14] and in assay [15] was greater than 100 µM each time.
As to `CC#CCCN(CC#N)Cc1ccccc1`, the TGI is greater than 100 µM in assay [16]; greater than 100 µM in assay [1]; greater than 100 µM in assay [2]; 44.7 µM in assay [3]; greater than 100 µM in assay [4]; greater than 100 µM in [5]. In addition, the TGI in assay [6], in [7], in assay [8], in [9], in assay [10] and in [11] was greater than 100 µM throughout. Further, the total growth inhibition concentration (TGI) in assay [12], in assay [13] and in [14] was greater than 100 µM each time.
On to `NNc1[nH]c(=S)[nH]c1C(N)=O`, for which the total growth inhibition concentration (TGI) in [16], in [1], in assay [2], in assay [3], in assay [4] and in assay [5] was greater than 100 µM each time. The TGI in [6], in assay [7], in assay [8], in assay [9], in [10] and in assay [11] was greater than 100 µM in each case. For the same molecule, the TGI in assay [13], in assay [14] and in assay [15] was greater than 100 µM each time.
In the case of `Cc1ccc(S(=O)(=O)N2CCCC2C(=O)O[C@H]2CC[C@H]3CC=C[C@H]32)cc1` (stereo not given in full), the concentration for total growth inhibition (TGI) in assay [16] is greater than 100 µM; in assay [1] it was greater than 100 µM; in [2], 67.4 µM; in [3] it was 78.8 µM; in [4], greater than 100 µM; in [5], greater than 100 µM. Further, the total growth inhibition concentration (TGI) was greater than 100 µM in [7]; greater than 100 µM in assay [9]; greater than 100 µM in assay [10]; greater than 100 µM in assay [11]; greater than 69.6 µM in assay [12]; greater than 100 µM in [14]. In addition, in assay [15], the TGI was greater than 100 µM.
Turning to `O=C(CCN1CCOCC1)Nc1ccc2sc3ccccc3c(=O)c2n1`, the TGI in assay [16], in [1], in [2], in assay [3], in assay [4] and in assay [5] was greater than 100 µM each time. Also, the TGI is greater than 100 µM in assay [6]; greater than 100 µM in [7]; 85.2 µM in assay [9]; greater than 100 µM in [10]; greater than 100 µM in assay [11]; greater than 100 µM in assay [12]. Also, the total growth inhibition concentration (TGI) in assay [13] was 45.9 µM; in [14], greater than 100 µM; in [15], greater than 100 µM.
